In assay [1] the target is T1, human MC1R (Homo sapiens, UniProt Q01726).
T1 construct: expressed in transfected cells
The assay can be described thus: Melanocortin receptor radioligand binding (SPA, [125I]-NDP-α-MSH displacement), MC1R. The conditions noted are these: competitive binding, mean (± SEM) of at least three independent experiments, read-out: IC50 hMC1R binding.

The next assay relates to hMC1−5R. The assay can be described thus: Melanocortin receptor radioligand binding, result stated for all receptors together. The conditions noted are these: human MC receptors, radioligand binding. Also on record: species or system human. The text has this: Example concentration response curves for selected PepNats in MC1R, MC3R, MC4R, MC5R radioligand binding assays and MC1R, MC3R, MC4R cAMP assays. Responses were normalized to reference agonist NDP -α-MSH and presented as % effect of control, with full competition in binding defined as -100% and full agonism in cAMP assays defined as […]
binding assay. Threshold to define a compound as active was set to -30% in binding assays and 20% in cAMP assays respectively. Data are from at least three independent experiments and error bars represent ± Standard Error of the […]
% s p e c ific b in d in g o f
(1 picture or pasted object on this page, not shown here) […]
expression, MC1R and MC4R transfected cells were treated with 0.1 ng /mL and MC3R transfected cells with 10 ng/mL doxycyclin, for 24 h before assay.
Melanocortin receptor radioligand binding and cAMP assays.
Binding and cAMP assays were performed as described by Durek et al.7 “A 384-well format scintillation proximity assay (SPA) was used to identify compounds that show competitive binding to the human Melanocortin receptor 1,3,4 or 5 ligand binding domain (LBD). […] The inhibition of the scintillation signal by displacement of [ 125I]- NDP-α-MSH by test compounds were detected by a 1450 MicroBeta Trilux scintillation counter […]
Plates were incubated for 16-23 h in the dark at room temperature before reading on a 1450 […]
Measurements of cAMP production were performed using LANCE® cAMP kits (PerkinElmer) in a total assay volume of 12 µl/well. […] The reaction was stopped with detection buffer containing 10 µM Biotin-cAMP and 15 µM LANCE Eu-W8044 labelled streptavidin (PerkinElmer LANCE cAMP kit). cAMP production was detected by homogenous time resolved fluorescence (HTRF) (λex = 340 nm, λem = 665 and 615 nm) using a Pherastar (BMG Labtech).
PepNats, literature compounds and references were tested in ten-point concentration response (½ log serial dilution) with 100, 10 or 1 µM as final start concentrations. Raw data output was analyzed in Screener software (Genedata AG) and pEC50 and pIC50 values calculated using a four-

Assay [2] deals with T2, human MC3R (Homo sapiens, UniProt P41968).
T2 construct: expressed in transfected cells
T2 sequence (P41968 whole entry): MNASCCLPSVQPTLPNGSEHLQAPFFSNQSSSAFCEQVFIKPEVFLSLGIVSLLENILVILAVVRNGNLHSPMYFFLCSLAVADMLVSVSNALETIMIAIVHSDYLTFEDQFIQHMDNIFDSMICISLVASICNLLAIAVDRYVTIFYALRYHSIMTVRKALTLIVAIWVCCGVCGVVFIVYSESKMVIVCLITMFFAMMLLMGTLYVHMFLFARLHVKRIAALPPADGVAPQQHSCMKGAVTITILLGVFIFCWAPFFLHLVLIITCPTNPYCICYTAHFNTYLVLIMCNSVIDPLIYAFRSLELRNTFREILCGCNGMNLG
Kind of assay: cAMP assay (LANCE) in T-Rex-293 cells expressing MC3R. The conditions noted are these: cAMP assay; mean (± SEM) of at least three independent experiments; read-out: EC50 hMC3R cAMP. The class given is cell-based. Background: Cyclic AMP is a second messenger, typically raised through Gs and lowered through Gi signalling.

The target in assay [3] is T3, human MC4R (Homo sapiens, UniProt P32245).
T3 construct: expressed in transfected cells
T3 sequence (P32245 whole entry): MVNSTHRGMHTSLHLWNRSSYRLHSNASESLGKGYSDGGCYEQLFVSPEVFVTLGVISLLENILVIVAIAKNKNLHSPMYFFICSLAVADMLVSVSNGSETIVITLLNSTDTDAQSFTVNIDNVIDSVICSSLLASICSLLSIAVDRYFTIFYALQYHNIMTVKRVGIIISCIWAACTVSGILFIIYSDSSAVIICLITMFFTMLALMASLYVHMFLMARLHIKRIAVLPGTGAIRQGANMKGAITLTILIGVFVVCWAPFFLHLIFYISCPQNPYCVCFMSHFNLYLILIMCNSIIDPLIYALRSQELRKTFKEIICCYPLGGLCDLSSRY
Kind of assay: Melanocortin receptor radioligand binding (SPA, [125I]-NDP-α-MSH displacement), MC4R. The conditions noted are these: competitive binding, mean (± SEM) of at least three independent experiments, read-out: IC50 hMC4R binding.

Assay [4] has as its target T3, human MC4R. Kind of assay: cAMP assay (LANCE) in T-Rex-293 cells expressing MC4R. In kind it is cell-based. The following applies: cAMP assay; mean (± SEM) of at least three independent experiments; read-out: EC50 hMC4R cAMP.
Assay [5] addresses T2, human MC3R. Kind of assay: Melanocortin receptor radioligand binding (SPA, [125I]-NDP-α-MSH displacement), MC3R. The following applies: competitive binding, mean (± SEM) of at least three independent experiments, read-out: IC50 hMC3R binding.
The target in a further assay is T4, human MC5R (Homo sapiens, UniProt P33032).
T4 construct: expressed in transfected cells; host or cells: HEK293-6E suspension cells, transient expression; membranes
T4 sequence (P33032 whole entry): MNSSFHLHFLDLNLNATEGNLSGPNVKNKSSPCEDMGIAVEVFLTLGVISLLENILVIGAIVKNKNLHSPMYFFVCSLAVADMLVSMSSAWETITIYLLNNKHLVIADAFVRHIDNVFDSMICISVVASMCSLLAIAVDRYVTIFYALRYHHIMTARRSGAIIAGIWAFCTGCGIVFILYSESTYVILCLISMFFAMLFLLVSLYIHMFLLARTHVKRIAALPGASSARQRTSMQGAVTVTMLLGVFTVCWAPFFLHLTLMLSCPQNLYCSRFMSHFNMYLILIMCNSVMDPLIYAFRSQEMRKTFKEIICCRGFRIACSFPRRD
Kind of assay: Melanocortin receptor radioligand binding (SPA, [125I]-NDP-α-MSH displacement), MC5R. The conditions noted are these: competitive binding, [125I]-NDP-α-MSH; mean (± SEM) of at least three independent experiments; read-out: IC50 hMC5R binding.

The target of assay [6] is T1, human MC1R. Kind of assay: cAMP assay (LANCE) in T-Rex-293 cells expressing MC1R. The class given is cell-based.

Where a SMILES comes first, the peptide text is derived from it.

Broadly, the IC50 is the concentration that gives 50% inhibition. The term EC50 denotes the concentration needed to bring the measured effect to its halfway point.

T1 sequence (Q01726 whole entry): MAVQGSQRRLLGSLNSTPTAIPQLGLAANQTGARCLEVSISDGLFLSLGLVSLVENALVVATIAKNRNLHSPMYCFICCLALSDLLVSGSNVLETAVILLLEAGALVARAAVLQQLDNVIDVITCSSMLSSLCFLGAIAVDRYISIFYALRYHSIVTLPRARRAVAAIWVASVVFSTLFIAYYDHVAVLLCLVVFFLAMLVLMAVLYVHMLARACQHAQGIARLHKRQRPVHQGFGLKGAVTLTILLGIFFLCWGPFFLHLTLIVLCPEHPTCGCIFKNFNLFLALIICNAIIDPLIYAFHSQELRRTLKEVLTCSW

In the case of `C[C@@H]1NC(=O)[C@H](CC(N)=O)NC(=O)[C@H](Cc2ccccc2)NC(=O)[C@H](Cc2ccccc2)NC(=O)[C@H](CCCNC(=N)N)NC(=O)[C@@H](NC(=O)[C@@H](N)Cc2ccc(O)cc2)CSSC[C@@H](C(=O)N[C@@H](Cc2ccc(O)cc2)C(N)=O)NC(=O)[C@H](Cc2ccccc2)NC1=O` [compound 28, reference compound] (HELM PEPTIDE1{Y.C.R.F.F.N.A.F.C.Y.[am]}$PEPTIDE1,PEPTIDE1,2:R3-9:R3$$$V2.0), the IC50 was determined as 10000 ± 1000 nM on human MC1R [1], 180 ± 10 nM on human MC4R [3], 1600 ± 100 nM at human MC3R [5] and 1600 ± 300 nM on human MC5R. The “binding to the MC receptors (in words)” value in the assay with hMC1−5R is recorded as “micromolar affinity”. Further, the EC50 at human MC3R [2] is over 100000 nM; at human MC4R [4], over 100000 nM; on human MC1R [6] (cAMP assay, mean (± SEM) of at least three independent experiments, read-out: EC50 hMC1R cAMP), 1200 ± 400 nM. Also, the Emax on human MC1R [6] (T-REx-293, read-out: % Effect hMC1R cAMP) was 44%. Further, at human MC1R [6] (cAMP assay, hMC1R), the “agonistic activity at MC1R (in words)” value is on record as “weak partial agonistic activity”.

The values are drawn from paper PMC7307906, “Macrocyclic Modalities Combining Peptide Epitopes and Natural Product Fragments” (Journal of the American Chemical Society, 2020).
